The test system of data set [1] is MCF7-DX (Breast Cancer Cells), a drug-resistance cell line. The data set is described as follows: Cell apoptosis (XTT method) in MCF7-DX cells. The data set is classed as cell-based. How it is done: [Worded in the source for another cell line; this cell line is reported under the same test.] (§1) Each oligonucleotide was diluted in 10 mM Tris-HCl (pH 7.4) to a final concentration of 100 μM. The diluted solution was placed at 94° C. for 5 minutes and then quickly placed them on ice and left therein for 5 minutes. The resultant was added with 2M KCl to a final concentration of 50 mM, left at 60° C. for 3 hours and then slowly cooled down to room temperature.
(§2) One day before the experiment, 190 μL of culture, wherein PC-3 cell line(prostate cancer cell) was suspended at a concentration of 10^3-10^4/mL, was inoculated respectively into each well of a 96 well plate. The next day, 10 μL of the oligonucleotide solution prepared in Example 1 was added and cultured for six days. Six days after the inoculation, cell apoptosis rate measured by means of XTT method [JBC 1999, 26369].
As a result, it was confirmed that the cell apoptosis rate of APT-2001, APT-2002 and APT-2003 (the novel modified oligonucleotides of the present invention), was 3-10 times higher than those of APT-4001 (positive control) and APT-4002 (negative control) as measured in terms of IC50 or IC90 (FIG. 2). […] In addition, the cell apoptotic activity of the oligonucleotides, prepared according to the present invention over the K562 CML (chronic myeloid leukemia), MV-4-11 AML (acute leukemia) cells, were also verified.

Data set [2] deals with PC-3 cell line (prostate cancer cell). The data set is described as follows: Cell apoptosis (XTT method) in PC-3 cells. Conditions: PC3 (Prostate Cancer Cells), cultured six days, XTT. The data set is classed as cell-based. How it is done:
as §1, §2

Experimental findings from patent US9056886B2, “Guanosine-rich modified oligonucleotides and antiproliferative activity thereof” (APTABIO THERAPEUTICS INC., priority 2009, dated 2015) are described below.

pIC50: −log10 of the molar value. [5FU] = 5-fluorouracil base (5-fluoro-2'-deoxyuridine unit); [GEM] = 2',2'-difluoro-2'-deoxycytidine (gemcitabine); [5FC] = 5-fluoro-2'-deoxycytidine; d = 2'-deoxy (DNA)

With “APT-2033: GGTGGTGGTTTNGGTGGTGG (SEQ. ID. NO. 25); N=5-F-deoxyuridine, G=2-deoxy-guanosine, H=thymidine (DNA GGTGGTGGTTTUGGTGGTGG; aptamer; DNA, [5FU] at 12, backbone not given here)”, the pIC50 is 5.48 in data set [1] and under 5.00 in data set [2].

“APT-2034: GGTGGTGGTNNNGGTGGTGG (SEQ. ID. NO. 26); N=5-F-deoxyuridine, G=2-deoxy-guanosine, H=thymidine (DNA GGTGGTGGTUUUGGTGGTGG; DNA, [5FU] at 10, 11, 12, backbone not given here)”: the results for the pIC50 in data set [1] and in data set [2] were 5.92 and under 5.00, respectively.

On to “APT-2060: GGTGGTGGNTGTGGTGGTGG (SEQ. ID. NO. 37); N=2′,2′-difluoro deoxycytidine, G=2-deoxy-guanosine, H=thymidine (aptamer; listed as DNA, chemistry not fully specified)”, for which the negative logarithm of the IC50 (pIC50) in data set [1] is 7.64; in data set [2], 7.40.

As for “APT-2059: GGTGGTGGTNNTGGTGGTGG (SEQ. ID. NO. 23); N=2′,2′-difluoro deoxycytidine, G=2-deoxy-guanosine, H=thymidine (2',2'-difluoro deoxycytidine modified nucleosides, chemistry not fully specified)”, the values for the negative logarithm of the IC50 (pIC50) in data set [1] and in data set [2] were 8.40 and 7.82, respectively.

In turn, “APT-2071: GGTGGNGGTGGTTGTGGTGGNGGTGG (SEQ. ID. NO. 46); N=2′,2′-difluoro deoxycytidine, G=2-deoxy-guanosine, H=thymidine (2',2'-difluoro deoxycytidine modified nucleosides, chemistry not fully specified)” showed a pIC50 in data set [1] of 7.82.

Regarding “APT-2069: GGTGGTGGTGGTNGNGGTGGTGGTGG (SEQ. ID. NO. 44); N=2′,2′-difluoro deoxycytidine, G=2-deoxy-guanosine, H=thymidine (2',2'-difluoro deoxycytidine modified nucleosides, chemistry not fully specified)”, the pIC50 in data set [1] was 8.00.

Turning to “APT-2043: GGNGGNGGTGGTTGTGGTGGNGGNGG (SEQ. ID. NO. 33); N=5-F-deoxyuridine, G=2-deoxy-guanosine, H=thymidine (5-F-deoxyuridine modified nucleosides)”, the pIC50 in data set [1] was 6.22.

Turning to “APT-2035: GGTGGTGGTTNTGGTGGTGG (SEQ. ID. NO. 24); N=2′,2′-difluoro deoxycytidine, G=2-deoxy-guanosine, H=thymidine (2',2'-difluoro deoxycytidine modified nucleosides, chemistry not fully specified)”, the pIC50 was 8.15 in data set [1] and 7.46 in data set [2].

As for “APT-2072: GGTGGTGGTTNTGGTGGTGGN (SEQ. ID. NO. 47); N=2′,2′-difluoro deoxycytidine, G=2-deoxy-guanosine, H=thymidine (2',2'-difluoro deoxycytidine modified nucleosides, chemistry not fully specified)”, the negative-log IC50 (pIC50) in data set [2] is 7.92.

As to “APT-2061: GGTGGTGGTNGTGGTGGTGG (SEQ. ID. NO. 38); N=2′,2′-difluoro deoxycytidine, G=2-deoxy-guanosine, H=thymidine (DNA GGTGGTGGTCGTGGTGGTGG; aptamer; sugars from the 5' end d9 [GEM]1 d10, backbone not given here; G-quadruplex forming oligonucleotide)”, the pIC50 was 7.66 in data set [1] and 7.39 in data set [2].

Consider “APT-2032: GGTGGTGGTTNTGGTGGTGG (SEQ. ID. NO. 24); N=5-F-deoxyuridine, G=2-deoxy-guanosine, H=thymidine (DNA GGTGGTGGTTUTGGTGGTGG; aptamer; DNA, [5FU] at 11, backbone not given here)”, for which the pIC50 was 5.44 in data set [1] and under 5.00 in data set [2].

Take “APT-2042: GGNGGNGGNGGTTGTGGNGGNGGNGG (SEQ. ID. NO. 32); N=5-F-deoxyuridine, G=2-deoxy-guanosine, H=thymidine (5-F-deoxyuridine modified nucleosides)”: in data set [1], the negative logarithm of the IC50 (pIC50) is 6.30.

Take “APT-2066: GGTGGTGGTGGTNNTGGTGGTGGTGG (SEQ. ID. NO. 29); N=2′,2′-difluoro deoxycytidine, G=2-deoxy-guanosine, H=thymidine (DNA GGTGGTGGTGGTCCTGGTGGTGGTGG; sugars from the 5' end d12 [GEM]2 d12, backbone not given here; G-quadruplex forming oligonucleotide)”: the pIC50 in data set [1] is 8.00; in data set [2], 7.47.

In turn, “APT-2068: GGTGGTGGTGGTTGNGGTGGTGGTGG (SEQ. ID. NO. 31); N=2′,2′-difluoro deoxycytidine, G=2-deoxy-guanosine, H=thymidine (2',2'-difluoro deoxycytidine modified nucleosides, chemistry not fully specified)” had a pIC50 in data set [1] of 7.64.

Take “APT-2054: GGTGGTGGTGGTTNTGGTGGTGGTGG (SEQ. ID. NO. 30); N=2′,2′-difluoro deoxycytidine, G=2-deoxy-guanosine, H=thymidine (DNA GGTGGTGGTGGTTCTGGTGGTGGTGG; sugars from the 5' end d13 [GEM]1 d12, backbone not given here; G-quadruplex forming oligonucleotide)”: the negative logarithm of the IC50 (pIC50) in data set [1] and in data set [2] was over 6.52 throughout.

“APT-2040: GGTGGTGGTGGTTNTGGTGGTGGTGG (SEQ. ID. NO. 30); N=5-F-deoxyuridine, G=2-deoxy-guanosine, H=thymidine (DNA GGTGGTGGTGGTTUTGGTGGTGGTGG; DNA, [5FU] at 14, backbone not given here)”: the pIC50 in data set [1] is under 6.00.

For “APT-2044: GGNGGTGGTGGTTGTGGTGGTGGNGG (SEQ. ID. NO. 34); N=5-F-deoxycytidine, G=2-deoxy-guanosine, H=thymidine (DNA GGCGGTGGTGGTTGTGGTGGTGGCGG; DNA, [5FC] at 3, 24, backbone not given here; G-quadruplex forming oligonucleotide)”, in data set [1], the pIC50 was under 6.00.

In the case of “APT-2031: GGTGGTGGTNNTGGTGGTGG (SEQ. ID. NO. 23); N=5-F-deoxyuridine, G=2-deoxy-guanosine, H=thymidine (DNA GGTGGTGGTUUTGGTGGTGG; aptamer; DNA, [5FU] at 10, 11, backbone not given here)”, the figures for the pIC50 in data set [1] and in data set [2] were 5.82 and under 5.00, respectively.

For the substance “APT-2070: GGNGGTGGTGGTTGTGGTGGTGGTGG (SEQ. ID. NO. 45); N=2′,2′-difluoro deoxycytidine, G=2-deoxy-guanosine, H=thymidine (2',2'-difluoro deoxycytidine modified nucleosides, chemistry not fully specified)”, the pIC50 in data set [1] was 7.89; in data set [2] it was 7.62.

Take “APT-2013: NNNGGNGGNGGNGGTTGTGGNGGNGGNGG (SEQ. ID. NO. 10); N=5-F-deoxyuridine, G=2-deoxy-guanosine, H=thymidine (DNA UUUGGUGGUGGUGGTTGTGGUGGUGGUGG; DNA, [5FU] at 1, 2, 3, 6, 9, 12, 21, 24, 27, backbone not given here)”: the figures for the negative logarithm of the IC50 (pIC50) in data set [1] and in data set [2] were 6.18 and 7.05, respectively.

In data set [1], “APT-2067: GGTGGTGGTGGTNGTGGTGGTGGTGG (SEQ. ID. NO. 43); N=2′,2′-difluoro deoxycytidine, G=2-deoxy-guanosine, H=thymidine (DNA GGTGGTGGTGGTCGTGGTGGTGGTGG; sugars from the 5' end d12 [GEM]1 d13, backbone not given here; G-quadruplex forming oligonucleotide)” gave a pIC50 of 7.62.

As to “APT-2023: GGNGGTGGNGG (SEQ. ID. NO. 21); N=5-F-deoxyuridine, G=2-deoxy-guanosine, H=thymidine (DNA GGUGGTGGUGG; DNA, [5FU] at 3, 9, backbone not given here)”, the values for the pIC50 in data set [1] and in data set [2] were 5.73 and 6.59, respectively.

Regarding “APT-2022: GGTGGNNNNGGTGG (SEQ. ID. NO. 20); N=5-F-deoxyuridine, G=2-deoxy-guanosine, H=thymidine (DNA GGTGGUUUUGGTGG; DNA, [5FU] at 6, 7, 8, 9, backbone not given here)”, the values for the pIC50 in data set [1] and in data set [2] were 6.10 and 6.96, respectively.

Regarding “APT-2063: GGTGGTGGTNGNGGTGGTGG (SEQ. ID. NO. 40); N=2′,2′-difluoro deoxycytidine, G=2-deoxy-guanosine, H=thymidine (aptamer; listed as DNA, chemistry not fully specified)”, the negative-log IC50 (pIC50) in data set [1] is 8.10; in data set [2] it was 7.66.

With “APT-2064: GGNGGTGGTTGTGGTGGNGG (SEQ. ID. NO. 41); N=2′,2′-difluoro deoxycytidine, G=2-deoxy-guanosine, H=thymidine (DNA GGCGGTGGTTGTGGTGGCGG; sugars from the 5' end d2 [GEM]1 d14 [GEM]1 d2, backbone not given here; G-quadruplex forming oligonucleotide)”, the pIC50 in data set [1] is 8.10; in data set [2], 7.80.
